Tests used:
[1] = target: Glutamate receptor ionotropic, NMDA 1 (Rattus norvegicus, UniProt P35439); experiment: Inhibition of [3H]- DCKA binding to NMDA receptor of rat brain membranes; type: cell membranes, Membrane
[2] = Steady state Selectivity index for inhibition at NMDA receptor glycine site was estimated by dividing Kb (AMPA) by Kb (NMDA)
[3] = target: Glutamate receptor ionotropic, AMPA (Rattus norvegicus) (UniProt P19491+P19492+P19493+P19490); experiment: Inhibition of Ionotropic glutamate receptor AMPA in xenopus oocytes expressing the rat cerebral cortex poly(A+) RNA; type: cell-based; conditions: Oocyte
[4] = Functional antagonism of NR1a/2C N-methyl-D-aspartate glutamate receptor of rat membrane expressed in Xenopus oocytes; conditions: Oocyte

Row | Structure (SMILES) | IC50 [1] | Selectivity [2] | Kb [3] | Kb [4]
1 | O=Nc1c(O)c2cc(F)c(Cl)c(F)c2[nH]c1=O | 910 nM |  |  | 
2 | O=Nc1c(O)c2c(F)c(F)c(F)c(F)c2[nH]c1=O | 3300 nM |  |  | 
3 | O=Nc1c(O)nc2ccccc2c1O | 1400 nM |  |  | 
4 | O=Nc1c(O)c2c(Cl)cc(Cl)cc2[nH]c1=O | 33 nM |  |  | 
5 | O=Nc1c(O)nc2c(Cl)cccc2c1O | > 100000 nM |  |  | 
6 | O=Nc1c(O)nc2cccc(Cl)c2c1O | 4400 nM |  |  | 
7 | O=Nc1c(O)nc2cc(Cl)ccc2c1O | 53 nM | 8.6 | 740 nM | 86 nM
8 | O=Nc1c(O)c2cc(Cl)ccc2[nH]c1=O | 3400 nM |  |  | 
9 | Cc1cc(C)c2c(O)c(N=O)c(=O)[nH]c2c1 | 37 nM |  |  | 
10 | O=c1[nH]c2c(F)c(F)c(F)c(F)c2[nH]c1=O | 730 nM |  |  | 
11 | Cc1cc(C)c2c(O)c(N=O)c(O)nc2c1 |  | 15 | 2600 nM | 170 nM

Now from value to compound, other results behind:

Row | IC50 [1] | Selectivity [2] | Kb [3] | Structure (SMILES) | Kb [4]
12 | 2100 nM |  |  | Cc1cc(C)c2nc(O)c(O)nc2c1 | 
13 |  | 13 | 600 nM | O=Nc1c(O)nc2cc(Cl)cc(Cl)c2c1O | 47 nM
14 | 12 nM | 17 | 410 nM | O=Nc1c(O)nc2cc(Cl)c(Cl)cc2c1O | 24 nM
15 | 7 nM |  | 180 nM | O=Nc1c(O)nc2cc(Cl)c(Cl)c(Cl)c2c1O | 22 nM
16 | 630 nM |  |  | Oc1nc2cc(F)c(Cl)c(F)c2nc1O | 
17 | 280 nM |  |  | Oc1nc2cc(Cl)cc(Cl)c2nc1O | 730 nM
18 | 9800 nM |  |  | Oc1nc2ccccc2nc1O | 
19 | 130 nM |  |  | Oc1nc2cc(Cl)c(Cl)cc2nc1O [2,3-DIHYDROXY-6,7-DICHLOROQUINOXALINE] | 380 nM
20 | 170 nM |  |  | O=Nc1c(O)nc2ccc(Cl)c(Cl)c2c1O | 
21 | 30 nM |  |  | Oc1nc2cc(Cl)c(Cl)c(Cl)c2nc1O | 82 nM
22 | 1800 nM |  |  | Oc1nc2ccc(Cl)cc2nc1O | 2600 nM

Reference: ChEMBL document CHEMBL1129792, “Synthesis and structure-activity relationships of 1,2,3,4-tetrahydroquinoline-2,3,4-trione 3-oximes: novel and highly potent antagonists for NMDA receptor glycine site” (J Med Chem, 1996)
